According to patent US20220305129A1, “CONJUGATES OF HETEROAROMATIC NITROGEN-COMPRISING COMPOUNDS” (Ascendis Pharma A/S, priority 2019, published 2022):

Assay: In vitro release kinetics: cleavage rate of the reversible bond in aqueous buffer
Type: physicochemical
Conditions: aqueous buffer (sodium phosphate with acetonitrile), pH 7.4, 37° C., 48 mM sodium phosphate, 20% acetonitrile, disappearance of conjugate by LCMS (UV), read-out: t1/2 (pH 7.4) (converted)
Protocol: The cleavage rate of the reversible bond from conjugates 6, 10 and 11 was monitored at pH 7.4 and 37° C. in aqueous buffer (pH 7.4 48 mM sodium phosphate, 20% acetonitrile). The disappearance of the conjugate was determined by LCMS (UV detection) and fitted with curve fitting software to obtain the half-life of the release.

In order of falling half-life:
1. CCOC(c1ccccc1)n1cnc2ccccc21 (stereo not drawn) [Compound 6]  192 h
2. CCOC(c1ccccc1)n1ncc2ccccc21 (stereo not drawn) [Compound 11]  137 h
3. CCOC(c1ccc(CC(=O)O)cc1)n1cnc2ccccc21 (stereo not drawn) [Compound 10]  10 h
